{
  "source": "patent US20080214844A1",
  "about": "“Icaritin and desmethylicaritin as anti-cancer agents” (priority 2007, published 2008)",
  "key": {"HCT-116": {"system": "HCT-116", "experiment": "MTT cell viability assay, HCT-116", "format": "cell-based, human", "details": "Homo sapiens, 72 h, HCT-116, Colon, 3 days culture", "procedure": "(§1) 26 cancer cell lines were grown in normal growth medium in the presence of different concentrations Icaritin or Desmethylicaritin. After culture for 3 days, the cell viability was then measured by an MTT assay. […] Some EC50s were lower than 10 uM for these two compounds. […] Whereas, normal human mammary gland epithelial cells (MCF10A) were not sensitive to Icaritin and Desmethylicaritin. These cells grew well when treated with these two compounds at a concentration of 50 uM."}, "LoVo": {"system": "LoVo", "experiment": "MTT cell viability assay, LoVo", "format": "cell-based, human", "details": "Homo sapiens, 72 h, Colon, 3 days culture", "procedure": "as §1"}, "CCL-225": {"system": "CCL-225", "experiment": "MTT cell viability assay, CCL-225", "format": "cell-based, human", "details": "Homo sapiens, 72 h, CCL-225, Colon, 3 days culture", "procedure": "as §1"}, "CCL-247": {"system": "CCL-247", "experiment": "MTT cell viability assay, CCL-247", "format": "cell-based, human", "details": "Homo sapiens, 72 h, CCL-247, Colon, 3 days culture", "procedure": "as §1"}, "NCI-H23": {"system": "NCI-H23", "experiment": "MTT cell viability assay, NCI-H23", "format": "cell-based, human", "details": "Homo sapiens, 72 h, NCI-H23, Lung, 3 days culture", "procedure": "as §1"}, "MDA-MB-231": {"system": "MDA-MB-231", "experiment": "MTT cell viability assay, MDA-MB-231", "format": "cell-based, human", "details": "Homo sapiens, 72 h, MDA-MB-231, Breast, 3 days culture", "procedure": "as §1"}, "MDA-MB-435": {"system": "MDA-MB-435", "experiment": "MTT cell viability assay, MDA-MB-435", "format": "cell-based, human", "details": "Homo sapiens, 72 h, MDA-MB-435, Breast, 3 days culture", "procedure": "as §1"}, "MCF-7": {"system": "MCF-7", "experiment": "MTT cell viability assay, MCF-7", "format": "cell-based, human", "details": "Homo sapiens, MCF7, 72 h, MCF-7, Breast, 3 days culture", "procedure": "as §1"}, "786-O": {"system": "786-O", "experiment": "MTT cell viability assay, 786-O", "format": "cell-based, human", "details": "Homo sapiens, 786-0, 72 h, Kidney, 3 days culture", "procedure": "as §1"}, "SN12C": {"system": "SN12C", "experiment": "MTT cell viability assay, SN12C", "format": "cell-based, human", "details": "Homo sapiens, 72 h, Kidney, 3 days culture", "procedure": "as §1"}, "IGROV1": {"system": "IGROV1", "experiment": "MTT cell viability assay, IGROV1", "format": "cell-based, human", "details": "Homo sapiens, IGROV-1, 72 h, IGROV1, Ovary, 3 days culture", "procedure": "as §1"}, "Mid PaCa-2": {"system": "Mid PaCa-2", "experiment": "MTT cell viability assay, Mid PaCa-2", "format": "cell-based, human", "details": "Homo sapiens, 72 h, Mid PaCa-2, Pancreas, 3 days culture", "procedure": "as §1"}, "U-251": {"system": "U-251", "experiment": "MTT cell viability assay, U-251", "format": "cell-based, human", "details": "Homo sapiens, 72 h, U-251, Glioblastoma, 3 days culture", "procedure": "as §1"}, "SK-MEL-5": {"system": "SK-MEL-5", "experiment": "MTT cell viability assay, SK-MEL-5", "format": "cell-based, human", "details": "Homo sapiens, 72 h, SK-MEL-5, Skin, 3 days culture", "procedure": "as §1"}, "Raji": {"system": "Raji", "experiment": "MTT cell viability assay, Raji", "format": "cell-based, human", "details": "Homo sapiens, 72 h, Lymphoma, 3 days culture", "procedure": "as §1"}, "Jurkat T cell": {"system": "Jurkat T cell", "experiment": "MTT cell viability assay, Jurkat T cell", "format": "cell-based, human", "details": "Homo sapiens, 72 h, Leukemia, 3 days culture", "procedure": "as §1"}, "MCF-10a": {"system": "MCF-10a", "experiment": "MTT cell viability assay, MCF-10a normal breast epithelial cells", "format": "cell-based, human", "procedure": "as §1"}, "[1]": {"system": "FAS protein levels in LNCaP cells", "experiment": "Western blot analysis for FAS protein levels", "format": "cell-based, human"}, "[2]": {"system": "LNCaP cells and MDA-MB-231 cells", "experiment": "Synthesis of lipid classes in cancer cells", "format": "cell-based, human", "procedure": "Icaritin and Desmethylicaritin decrease Lipogenesis in Prostate and Breast Cancer cells via inhibition of fatty acid synthase (FAS) Activity. Protein extracts from LNCaP cells, which had been ^14C-labeled with malonyl-CoA, were pretreated with these two compounds. A concentration of 0.5 μM Icaritin or Desmethylicaritin reduced the in vitro enzymatic FAS activity to less than 50%. […] Consistent with their FAS inhibitory effect, inhibition of lipogenesis by Icaritin and Desmethylicaritin affected the synthesis of phospholipids (including phosphatidylcholine, phosphatidylethanolamine, phosphatidylinositol, phosphatidylserine, and sphingomyelin) and of triglycerides in LNCaP cells and MDA-MB-231 cells. […] Cholesterol synthesis, however, accounts for less than 10% of the total lipogenic activity in LNCaP and MDA-MB-231 cancer cells, whereas ˜75 and 15% of the lipogenic activity in these cells represents phospholipid and triglyceride synthesis, respectively."}, "HMVEC tube formation": {"system": "HMVEC tube formation", "experiment": "HMVEC tube formation on Matrigel", "format": "cell-based, human", "details": "18 hours", "procedure": "Endothelial cell tube formation in Matrigel is one measure of angiogenesis in vitro. The role of Icaritin in angiogenesis was assessed by determining the inhibition of HMVEC tube formation on Matrigel matrix plated onto 96-well plates. The HMVEC tube formation assay was performed as described previously. Briefly, 96-well plates were coated with 90 μL Matrigel (10 mg/mL, Collaborative Research) and incubated at 37° C. for 30 minutes to promote gelling. HMVECs (10,000 cells/sample) were resuspended in reduced growth medium (serum concentration 1% and 5 units/mL heparin) and added to each well with the indicated reagents in a final volume of 100 μL with different concentration of Icaritin. After 18 hours, the plates were fixed with Diff-Quik and at least four randomly selected fields per experimental condition were digitally recorded under bright-field illumination using a 10× objective. The mean additive length of all of the cords present in each optical field was measured using IPLab software and compared with controls using the Student's unpaired t test."}, "human lung cancer": {"system": "human lung cancer", "experiment": "Human lung cancer xenograft model", "format": "in vivo", "source_text": "(§2) ICA was extensively biotransformed and converted to at least three metabolites: Icariside II (molecule weight=514), Icaritin (molecule weight=368), and Desmethylicaritin (molecule weight=354). […] Icaritin and Desmethylicaritin have huge potentials to be developed as novel and broad anti cancer drugs.\nFIG. 2. Response of Human Lung tumor to treatment with Icaritin and Desmethyliciarityn."}, "human colon cancer": {"system": "human colon cancer", "experiment": "Human colon cancer xenograft model", "format": "in vivo", "source_text": "as §2\nFIG. 3. Response of Human Colon tumor to treatment with Icaritin and Desmethyliciarityn."}, "human prostate cancer": {"system": "human prostate cancer", "experiment": "Human prostate cancer xenograft model", "format": "in vivo", "source_text": "as §2\nFIG. 1. Response of Human Prostate tumor to treatment with Icaritin and Desmethyliciarityn."}},
  "data": [
    {"smiles": "COc1ccc(-c2oc3c(CC=C(C)C)c(O)cc(O)c3c(=O)c2O)cc1", "note": "[Icaritin]", "values": [
      {"measurement": "IC50", "setting": "HCT-116", "result": 6.4, "unit": "µM"},
      {"measurement": "IC50", "setting": "LoVo", "result": 10.3, "unit": "µM"},
      {"measurement": "IC50", "setting": "CCL-225", "result": 8.8, "unit": "µM"},
      {"measurement": "IC50", "setting": "CCL-247", "result": 16.5, "unit": "µM"},
      {"measurement": "IC50", "setting": "NCI-H23", "result": 6, "unit": "µM"},
      {"measurement": "IC50", "setting": "MDA-MB-231", "result": 5.3, "unit": "µM"},
      {"measurement": "IC50", "setting": "MDA-MB-435", "result": 10.2, "unit": "µM"},
      {"measurement": "IC50", "setting": "MCF-7", "result": 18.2, "unit": "µM"},
      {"measurement": "IC50", "setting": "786-O", "result": 10.5, "unit": "µM"},
      {"measurement": "IC50", "setting": "SN12C", "result": 15.8, "unit": "µM"},
      {"measurement": "IC50", "setting": "IGROV1", "result": 10.9, "unit": "µM"},
      {"measurement": "IC50", "setting": "Mid PaCa-2", "result": 8.1, "unit": "µM"},
      {"measurement": "IC50", "setting": "U-251", "result": 7.1, "unit": "µM"},
      {"measurement": "IC50", "setting": "SK-MEL-5", "result": 9.9, "unit": "µM"},
      {"measurement": "IC50", "setting": "Raji", "result": 5.4, "unit": "µM"},
      {"measurement": "IC50", "setting": "Jurkat T cell", "result": 5.1, "unit": "µM"},
      {"measurement": "IC50", "setting": "MCF-10a; Homo sapiens, 72 h, MCF-10a, Normal breast epithelial cells, 3 days culture, MTT", "result": "> 50", "unit": "µM"},
      {"measurement": "sensitivity of normal human mammary gland epithelial cells (MCF10A)", "setting": "MCF-10a; cells grew well at 50 uM", "result": "not sensitive"},
      {"measurement": "FAS protein levels (Western blot)", "setting": "[1]", "result": "did not influence"},
      {"measurement": "synthesis of cholesterol", "setting": "[2]; LNCaP and MDA-MB-231 cells", "result": "decreased"},
      {"measurement": "synthesis of phospholipids and of triglycerides", "setting": "[2]; LNCaP cells and MDA-MB-231 cells", "result": "affected"},
      {"measurement": "HMVEC tube formation", "setting": "HMVEC tube formation; 10 uM", "result": "completely inhibited"},
      {"measurement": "EC50", "setting": "HMVEC tube formation; Homo sapiens, HMVEC, read-out: EC50 to inhibit HMVEC tube formation", "result": 5.8, "unit": "µM"},
      {"measurement": "human lung cancer cell growth in vivo", "setting": "human lung cancer", "result": "strongly inhibiting"},
      {"measurement": "human colon cancer cell growth in vivo", "setting": "human colon cancer", "result": "strongly inhibiting"},
      {"measurement": "human prostate cancer cell growth in vivo", "setting": "human prostate cancer", "result": "strongly inhibiting"}
    ]}
  ]
}
